Results reported in article PMC2963311 (Nature neuroscience, 2008).
Where no end group is shown, it is not given here.

The substances below were run on EGL-6 (assay: GIRK current activation in EGL-6-expressing oocytes). Details: single synthetic peptide; X. laevis oocytes coexpressing EGL-6 and GIRKs; whole-cell currents, two-electrode voltage clamp, −80 mV, high-K+ medium (96 mM KCl); Fig. 4d.
Assay type: cell-based, C. elegans

Substance	agonist activity when applied individually
KSAFVRF-NH2	could function as agonists when applied individually
KSQYIRF-NH2	could function as agonists when applied individually
QPKARSGYIRF-NH2	could function as agonists when applied individually
